Measured values: PubChem BioAssay (NCI)
Several values for one entry are separate records, joined by “and”; a condition that tells them apart may be missing. Identical values can stand only once.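 The compound was tested at five concentrations on cells cultured in 96-well plates, with a 48-hour exposure period. GI50 marks 50% less growth. TGI: concentration producing complete growth inhibition.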

Key:
Assay in all cases: NCI anticancer screen, dose series, 48 h
[1] = tested on: 786-0 renal
[2] = tested on: CCRF-CEM leukemia
[3] = tested on: HT29 colon
[4] = tested on: K-562 leukemia
[5] = tested on: MDA-MB-435
[6] = tested on: PC-3 prostate
[7] = tested on: RXF 393 renal
[8] = tested on: SF-268 CNS
[9] = tested on: SF-539 CNS
[10] = tested on: UO-31 renal

Compound	TGI [1]	TGI [2]	TGI [3]	TGI [4]	TGI [5]	TGI [6]	TGI [7]	TGI [8]	TGI [9]	TGI [10]	GI50 [1]	GI50 [2]	GI50 [3]	GI50 [4]	GI50 [5]	GI50 [6]	GI50 [7]	GI50 [8]	GI50 [9]	GI50 [10]
c1ccc(CN2COc3c(ccc4c5c(ccc34)CN(Cc3ccccc3)CO5)C2)cc1	> 100 µM	> 100 µM	> 100 µM	> 100 µM	> 100 µM	> 100 µM	> 100 µM	> 100 µM	> 100 µM	> 100 µM										
CC(=O)N(O)c1ccc(/C=C/c2ccccc2)cc1	3.46 µM	> 100 µM	53.2 µM	> 100 µM	> 100 µM	> 100 µM	1.9 µM	9.69 µM	35.1 µM	2.9 µM	0.768 µM	0.137 µM	3.39 µM	7.39 µM	3.39 µM	2.32 µM	0.539 µM	0.817 µM	2.43 µM	0.759 µM
NC(=O)CC(N)c1nn[nH]n1 (configuration not stated)	> 100 µM	> 100 µM	> 100 µM	> 100 µM	> 100 µM	> 100 µM	> 100 µM	> 100 µM	> 100 µM	> 100 µM										
COc1c(OC(C)C)cc2cc(O)c(C(=O)NC3Cc4ccc(c(Cl)n4)O[C@@H]4C=C5C#C/C(=C\C#CC6OC56C4OC4CC(C)(O)C(O)C(C)O4)C(OC4CC(O)C(N(C)C)C(C)O4)COC3=O)cc2c1OC (some centres not stated)	> 36.3 µM and 2.79 µg/mL	> 36.3 µM and 5.33 µg/mL	> 36.3 µM and 37.5 µg/mL	> 36.3 µM and 37.5 µg/mL	> 36.3 µM	> 36.3 µM	> 36.3 µM and 1.92 µg/mL	> 36.3 µM and 17.3 µg/mL	> 36.3 µM and 5.29 µg/mL	> 36.3 µM and 37.5 µg/mL	7.1 µM and 0.244 µg/mL	4.34 µM and 0.0317 µg/mL	> 36.3 µM and 0.714 µg/mL	> 36.3 µM and 0.823 µg/mL			0.568 µg/mL	11.5 µM and 0.838 µg/mL	14.4 µM and 0.372 µg/mL	> 36.3 µM and 6.42 µg/mL
O=c1[nH]c2ccccc2n1C1CCN(CCCC(c2ccc(F)cc2)c2ccc(F)cc2)CC1	3.38 µM and 7.58 µM	6.76 µM and 30.3 µM	2.52 µM and 7.2 µM	4.54 µM and 17.4 µM	3.06 µM and 11.5 µM	3.2 µM and 21.3 µM	2.44 µM and 5.8 µM	28.9 µM	3.58 µM and 9.28 µM	2.44 µM and 18.1 µM	1.75 µM and 2.79 µM	2.3 µM	1.12 µM	1.88 µM	1.54 µM and 4.49 µM	1.41 µM and 7.81 µM	1.17 µM and 1.93 µM		1.88 µM and 3.35 µM	1.11 µM and 3.56 µM
O=C1/C(=C/c2ccccc2[N+](=O)[O-])COc2ccc(O)cc21	10 µM	2.52 µM	3.07 µM	> 100 µM	5.96 µM	10.8 µM	3.02 µM	7.97 µM	4.27 µM	2.63 µM	1.72 µM	0.326 µM	0.397 µM	0.528 µM	2.18 µM	2.01 µM	1.23 µM	2.4 µM	1.71 µM	1.02 µM
COc1ccc(COc2cc3oc(=O)c4cc(C(C)O)ccc4c3cc2OC)cc1 (configuration not stated)	56.7 µM	> 100 µM	> 100 µM	> 100 µM	> 22.9 µM	> 100 µM	15.6 µM	40.5 µM	33 µM	> 100 µM	13.1 µM	> 21.6 µM		73.4 µM	4.33 µM	14.7 µM	5.33 µM	9.89 µM	9.97 µM	14.7 µM
CN(C)c1nc(N)c(C#N)c(C#N)c1C#N	> 10 µM	> 10 µM	> 10 µM	> 7.15 µM	> 10 µM	> 10 µM	> 10 µM	> 10 µM	> 10 µM	> 10 µM										
Nc1nc(-c2ccc(Cl)cc2)nc2c1sc(=S)n2-c1ccccc1	3.62 µM	> 100 µM	> 100 µM	> 100 µM	> 100 µM	> 100 µM	6.19 µM	20.2 µM	3.29 µM	4.19 µM	1.84 µM	27 µM	6.09 µM	4.75 µM	6.65 µM	17.3 µM	2.51 µM	3.75 µM	1.62 µM	1.84 µM
Nc1nc2ccccc2c2c1S(=O)(=O)c1ccc(Cl)cc1C2=O	> 50 µM	4 µM	5.88 µM	> 50 µM	> 50 µM	> 50 µM	2.05 µM	> 50 µM	3.62 µM	9.38 µM	5.93 µM	0.623 µM	1.63 µM	1.45 µM	1.65 µM	0.89 µM	0.784 µM	1.83 µM	1.3 µM	1.21 µM
COCCOCCOCCOCCOC(=O)OC[n+]1ccc(NC(=NCCCCCCOc2ccc(Cl)cc2)NC#N)cc1	22.9 µM	15 µM	18.2 µM	20.5 µM	14.7 µM	14.2 µM	22.3 µM	26.9 µM	13.7 µM	24.1 µM	10.3 µM	< 0.01 µM	0.0369 µM	4.58 µM	< 0.01 µM	< 0.01 µM	7.44 µM	11.9 µM	< 0.01 µM	11.3 µM
Nc1nc(C(=O)O)c(N=Nc2ccccc2)c(=O)[nH]1	> 100 µM	> 100 µM	> 100 µM	> 100 µM	> 100 µM	> 100 µM	> 100 µM	> 100 µM	> 100 µM	> 100 µM										
CCn1ccnc1C(=O)/C=C/c1ccc(CC(=O)Nc2ccc(F)cc2)cc1	> 16.7 µM	16.3 µM	> 16.7 µM	> 16.7 µM	> 16.7 µM	> 16.7 µM	8.66 µM	> 16.7 µM	6.15 µM	10.5 µM	4.36 µM	4.35 µM	5.64 µM	2.06 µM	4.58 µM	7.06 µM	3.39 µM	3.81 µM	2.93 µM	2.65 µM
NCc1ccc(-c2nc(-c3ccc(Cl)c(O)c3)c(-c3ccncc3)[nH]2)cc1	> 25 µM	> 25 µM	> 25 µM	> 25 µM	> 25 µM	> 25 µM	> 25 µM	> 25 µM	> 25 µM	> 25 µM	> 25 µM	> 25 µM	> 25 µM	> 25 µM	5.18 µM	> 25 µM	> 19.2 µM	> 25 µM	> 25 µM	17.2 µM
[Cl][Cu][Cl]	> 10 µM	> 10 µM	> 10 µM	> 10 µM	> 10 µM	> 10 µM	> 10 µM	> 10 µM	> 10 µM	> 10 µM	> 10 µM	> 10 µM	> 10 µM	> 10 µM	> 10 µM	> 10 µM	> 10 µM	> 10 µM	> 10 µM	> 10 µM
Fc1ccc2nc(-c3nc(-c4ccccc4)n4ccccc34)[nH]c2c1	4.23 µM	> 100 µM	9.15 µM	> 100 µM	8.94 µM	4.24 µM	10.2 µM	9.96 µM	6.85 µM	5.15 µM	2.23 µM	5.28 µM	3.25 µM	3.47 µM	2.59 µM	1.82 µM	2.99 µM	3.29 µM	2.32 µM	1.75 µM
COc1ccc(-c2[nH]c3ccccc3c2/C=C(\C#N)S(=O)(=O)c2ccccc2)cc1	> 38.3 µM			> 100 µM	0.642 µM	> 68.8 µM	> 100 µM	> 45.9 µM	1.13 µM		0.844 µM	0.807 µM	0.309 µM	0.535 µM	0.204 µM	0.533 µM	1.02 µM	1.13 µM	0.299 µM	1.88 µM
CN(C)CCCn1c2c(c3cc4c(cc3c1=O)OCO4)C(=O)c1ccccc1-2	1.96 µM	3.51 µM	> 100 µM		5.81 µM	3.59 µM	8.93 µM	> 44.4 µM	13.4 µM	39.9 µM	0.0131 µM	0.192 µM	0.0472 µM	0.0793 µM	1.49 µM	0.365 µM	0.852 µM	13.9 µM	3.57 µM	4.19 µM
S=C(NCc1ccc2c(c1)OCO2)N1CCN(c2ncnc3c2oc2ccccc23)CC1	> 100 µM	> 100 µM	> 100 µM	> 100 µM	> 100 µM	> 100 µM	> 100 µM	> 100 µM	> 100 µM	> 100 µM	> 100 µM	> 82.7 µM	18 µM	3.6 µM	8.16 µM	6.88 µM	> 100 µM	> 100 µM	> 100 µM	> 21.7 µM
C=CCN(CC=C)C(=O)[C@H](CC)[C@@H]1CC[C@@H](C)[C@@H]([C@H](C)[C@@H](O)[C@@H](C)C(=O)[C@H](CC)C2O[C@]3(C=C[C@@H](O)[C@]4(CC[C@@](C)([C@H]5CC[C@](O)(CC)[C@H](C)O5)O4)O3)[C@H](C)C[C@@H]2C)O1 (some centres not stated)	5.48 µM	11.5 µM	16.1 µM	11 µM	8.5 µM	12.4 µM	3.47 µM	34.8 µM	3.91 µM	7.46 µM	2.19 µM	3.19 µM	3.12 µM	2.64 µM	2.71 µM	2.31 µM	1.57 µM	3.27 µM	1.97 µM	2.16 µM
C/C(=N\NC(=S)N1CCN(c2ccccn2)CC1)c1ncccn1	15.7 µM	2.06 µM and 11.4 µM	7.55 µM and 14.9 µM	1.35 µM and 4.46 µM	11.9 µM	15.9 µM	4.51 µM and 15.5 µM	1.47 µM and 14.6 µM	6.38 µM and 15.9 µM	4.58 µM and 13.7 µM	0.0742 µM		< 0.0263 µM		0.414 µM	0.0298 µM	1.05 µM	0.791 µM	0.655 µM	0.535 µM
C[C@@H](NC(=O)c1ccc(F)cc1)c1ccc2c(c1)CCN2C(=O)C1CCOCC1	> 100 µM	> 100 µM	> 100 µM	> 100 µM	> 100 µM	> 100 µM	> 100 µM	> 100 µM	> 100 µM	> 100 µM	> 100 µM	> 100 µM	> 100 µM	> 100 µM	> 100 µM	> 100 µM	> 100 µM	> 100 µM	> 100 µM	> 100 µM
Cn1c(C(=O)c2cccc3ccccc23)nc2ccccc21	> 100 µM	> 100 µM	> 100 µM	> 100 µM	> 100 µM	> 100 µM	> 100 µM	> 100 µM	> 100 µM	> 100 µM	> 100 µM	> 100 µM	> 100 µM	> 100 µM	> 100 µM	> 100 µM	> 100 µM	> 100 µM	> 100 µM	46.1 µM
CC(C)(C)c1cc(C(=O)O)c2c(c1)C(=O)OC2(c1ccccc1)c1ccccc1C(=O)O (configuration not stated)	> 100 µM	> 100 µM	> 100 µM	> 100 µM	> 100 µM	> 100 µM	> 100 µM	> 100 µM	> 100 µM	> 100 µM					> 100 µM	> 100 µM				
COc1ccc(OC)c(Cc2cnc3nc(N)nc(N)c3c2C)c1	30.2 µM	29.4 µM	20 µM	14.9 µM	> 49 µM	27.7 µM	21.9 µM	> 71.2 µM	20.3 µM	27.7 µM										
O=c1[nH]c(=S)[nH]c(-c2ccccc2)c1Cc1c(O)ccc2ccccc12	> 100 µM	41 µM	> 100 µM	> 100 µM	93 µM	> 100 µM	95.1 µM	> 100 µM	82.1 µM	80.9 µM										
Cc1cc(O)c2c3c(ccc2c1)C(=O)c1c(O)cccc1C3=O	> 100 µM	> 100 µM	> 44.9 µM	> 100 µM	0.341 µM	> 100 µM	> 100 µM	> 45 µM	50.5 µM	> 100 µM										
